The source of these data is US11851387B2, “Para-phenylenediamine derivative, 1,4-cyclohexyldiamine derivative, and fabricating method for 1,4-diamine cyclic compound derivative” (Yuanhan Materials Inc., priority 2021, dated 2023).

The nature of the data set: Solubility in solvent commonly used in the synthesis of polyimide (NMP, DMAc). The class given is physicochemical. An excerpt: In the following descriptions, features and effects of the present disclosure will be described more specifically with reference to some Embodiments and some Comparative Examples. It is noted that without exceeding the scope of the present disclosure, the materials used, their amount and ratio, processing details, processing flow, etc. can be appropriately alternated. Therefore, the present disclosure should not be interpreted restrictively by the Embodiments provided below. Specifically, each Comparative Example and each Embodiment are thoroughly mixed with solvent commonly used in the synthesis of polyimide (e.g., N-methylpyrrolidone (NMP) and dimethylacetamide (DMAc)), and the solubility of each Comparative Example and each Embodiment in the solvent is measured, so as to verify the efficacy of the present disclosure. The detailed description and the measurement results of the solubility of each Comparative Example and each Embodiment are shown in Table 1.

With `NC1CCC(N)CC1` (centres unmarked) [Comparative Example 2, 1,4-cyclohexanediamine], the “Solubility (g/100 g solvent)” value (solvent DMAc, dissolution temperature 70° C.) was found to be 5.7 g/100 g solvent.

Take `Nc1ccc(N)cc1` [Comparative Example 1, para-phenylenediamine]: the “Solubility (g/100 g solvent)” value (solvent NMP, dissolution temperature 50° C.) is on record as 4.1 g/100 g solvent.
